Source: patent US6630508B1, “Substituted benzopyrans as selective estrogen receptor β agonists” (Eli Lilly and Company, priority 2002, dated 2003)

Molecular target: T1, ER beta receptor (Homo sapiens, UniProt Q92731)
T1 construct: purchased PanVera
Assay: Competition ER binding assay (3H-Estradiol displacement)
Conditions: for Ratio of Ki(nM)ER alpha/Ki(nM) ER beta: selectivity ratio Ki ER alpha / Ki ER beta, Ki from IC50 by Cheng-Prusoff, 3H-Estradiol, ERAlpha or ERbeta Receptor (PanVera)
Description: The competition ER binding assay was run in a buffer containing 50 mM N-[2-hydroxyethyl]piperazine-N′-[2-ethanesulfonic acid (Hepes) pH 7.5, 1.5 mM EDTA, 150 mM NaCl, 10% glycerol, 1 mg/mL ovalbumin, 5 mM DTT, 0.025 μCi per well of ^3H-Estradiol(NEN #NET517 at 118 Ci/mmol, 1 mCi/mL), and 10 ng/well ERAlpha or ERbeta Receptor (PanVera). Competing compounds were added at 10 different concentrations. Non-specific binding was determined in the presence of 1 μM of E2 (17-β Estradiol, Sigma, St. Louis, Mo.). The binding reaction (140 μL) was incubated for 4 hours at room temperature, then 70 μL of cold dextran coated charcoal (DCC) buffer was added to each reaction (DCC buffer was prepared by adding 0.75 g of charcoal[Sigma] and 0.25 g of dextran [Pharmacia] per 50 mL of assay buffer). The incubation plates were mixed for 8 minutes on an orbital shaker at 4° C. and then centrifuged at 3,000 rpm for 10 minutes at 4° C. An aliquot of 120 μl of the mix was transferred to another 96-well, white flat bottom plate (Costar) and 175 μl of Wallac Optiphase Hisafe 3 scintillation fluid was added to each well. The plates were sealed and then shaken vigorously on an orbital shaker. After an incubation of 2.5 hrs, the radioactivity was counted in a Wallac Microbeta counter. […] The Kd for ^3H-Estradiol was determined by saturation binding to ERα and ERβ receptors. The IC50 values for compounds were converted to Ki values using the Cheng-Prusoff equation and the Kd values were determined by saturation binding assay.

T1 sequence (Q92731 whole entry): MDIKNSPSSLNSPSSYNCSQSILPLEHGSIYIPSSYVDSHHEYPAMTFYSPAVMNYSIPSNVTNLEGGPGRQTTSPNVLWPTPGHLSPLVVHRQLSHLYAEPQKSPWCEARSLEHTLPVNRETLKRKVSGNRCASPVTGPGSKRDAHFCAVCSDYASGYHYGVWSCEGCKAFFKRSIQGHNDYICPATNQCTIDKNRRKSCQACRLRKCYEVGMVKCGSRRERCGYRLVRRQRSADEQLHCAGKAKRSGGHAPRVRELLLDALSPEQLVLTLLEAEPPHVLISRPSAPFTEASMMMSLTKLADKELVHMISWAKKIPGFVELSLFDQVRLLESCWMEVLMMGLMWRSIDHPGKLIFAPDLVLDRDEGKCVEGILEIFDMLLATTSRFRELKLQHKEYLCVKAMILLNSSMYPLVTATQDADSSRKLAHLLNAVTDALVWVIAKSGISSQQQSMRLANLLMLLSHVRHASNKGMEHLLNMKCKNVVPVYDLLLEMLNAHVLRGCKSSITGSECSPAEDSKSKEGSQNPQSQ

SMILES | activity in the ER binding assay | Ratio of Ki(nM)ER alpha/Ki(nM) ER beta
Oc1ccc2c(c1)[C@H]1CCC[C@H]1[C@@H](c1ccc(F)cc1)O2 (racemic) [Example 2, (±)-2-(4-Fluorophenyl)-6-hydroxy-cyclopentyl[c]3,4-dihydro-2H-1-benzopyran] | active | 5.0
CCc1ccc([C@H]2Oc3ccc(O)cc3[C@H]3CCC[C@H]32)cc1 (racemic) [Example 3, (±)-2-(4-ethylphenyl)-6-hydroxy-cyclopentyl[c]3,4-dihydro-2H-1-benzopyran] | active | 2.6
Oc1ccc2c(c1)[C@H]1CCC[C@H]1[C@@H](c1ccc(C(F)(F)F)cc1)O2 (racemic) [Example 4, (±)-2-(4-Trifluoromethylphenyl)-6-hydroxy-cyclopentyl[c]3,4-dihydro-2H-1-benzopyran] | active | 6.9
Cc1ccc([C@H]2Oc3ccc(O)cc3[C@H]3CCC[C@H]32)cc1 (racemic) [Example 6, (±)-2-(4-Methylphenyl)-6-hydroxy-cyclopentyl[c]3,4-dihydro-2H-1-benzopyran] | active | 12.6
